Measured values taken from patent US20020183256A1, “Cytostatic-integrin conjugates having specifically cleavable linking units” (priority 2000, published 2002).
Read-outs that look alike come from different tables or passages of the source. *1 amine or outer side, *2 acyl side, *3 side chain or, on linkers, in order; H or OH if unused. Where a SMILES comes first, the peptide text is derived from it. [ ]: non-standard residue; d: D form. The star is where a group is joined. Camptothecin(20R,20-O) = CC[C@]1(O*)C(=O)OCc2c1cc1n(c2=O)Cc2cc3ccccc3nc2-1; X1 = CCCNC(=O)Nc1cccc(S(=O)(=O)Nc2cccc(C(CC(=O)O)N*)c2)c1; NH(1,4-C6H4)NHCS = S=C(Nc1ccc(N[*:1])cc1)[*:2]; CO = O=C([*:1])[*:2]; GABA = NCCCC(=O)O

Assays:
HT29 = assay: Growth inhibition test (MTT), cytotoxic action on tumour cell lines; assay type: cell-based, human
In short: (§1)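 Cells seeded at 50,000/ml (B16F10 20,000/ml) in RPMI + 10% FCS, grown 1 day at 37 °C, then compound added in DMSO. Growth read on day 6 by MTT (5 h, 37 °C), isopropanol solubilisation, extinction at 595 nm; IC50 reported per line.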

SW 480 = assay: as above; assay type: cell-based, human
In short: as §1

αvβ3 receptor = target: T1, αvβ3 receptor (Homo sapiens, UniProt P05106+P06756); assay: αvβ3 binding test (echistatin displacement, WGA SPA beads); conditions: αvβ3 from human A375 cells
T1 construct: αvβ3 from human A375 cells was purified; endogenous in cells; host or cells: human A375 cells (receptor purified from the cells, analogous to Wong et al. 1996)
T1 sequence (P06756 31-889 limits assumed): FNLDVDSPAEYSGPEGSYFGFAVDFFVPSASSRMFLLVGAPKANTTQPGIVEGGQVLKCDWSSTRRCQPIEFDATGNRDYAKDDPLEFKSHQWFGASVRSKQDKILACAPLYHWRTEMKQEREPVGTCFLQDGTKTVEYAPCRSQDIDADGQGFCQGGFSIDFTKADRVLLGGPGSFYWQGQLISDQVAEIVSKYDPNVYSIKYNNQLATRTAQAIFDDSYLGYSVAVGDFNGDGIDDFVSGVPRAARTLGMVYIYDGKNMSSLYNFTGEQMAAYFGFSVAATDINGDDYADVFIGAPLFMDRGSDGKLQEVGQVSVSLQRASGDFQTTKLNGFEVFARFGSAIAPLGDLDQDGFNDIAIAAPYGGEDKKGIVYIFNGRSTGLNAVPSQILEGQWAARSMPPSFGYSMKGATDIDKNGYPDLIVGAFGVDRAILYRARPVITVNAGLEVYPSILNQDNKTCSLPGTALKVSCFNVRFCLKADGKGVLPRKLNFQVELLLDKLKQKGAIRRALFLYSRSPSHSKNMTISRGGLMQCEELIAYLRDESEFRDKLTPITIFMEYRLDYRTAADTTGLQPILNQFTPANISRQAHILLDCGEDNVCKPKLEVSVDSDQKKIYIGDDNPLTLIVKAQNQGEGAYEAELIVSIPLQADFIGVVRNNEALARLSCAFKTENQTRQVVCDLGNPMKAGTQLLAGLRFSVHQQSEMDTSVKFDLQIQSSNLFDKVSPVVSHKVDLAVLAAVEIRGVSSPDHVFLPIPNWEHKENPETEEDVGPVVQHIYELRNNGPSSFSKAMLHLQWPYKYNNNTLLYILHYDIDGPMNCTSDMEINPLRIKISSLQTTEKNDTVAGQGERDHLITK
T1 sequence (P06756 891-1048 partner limits assumed): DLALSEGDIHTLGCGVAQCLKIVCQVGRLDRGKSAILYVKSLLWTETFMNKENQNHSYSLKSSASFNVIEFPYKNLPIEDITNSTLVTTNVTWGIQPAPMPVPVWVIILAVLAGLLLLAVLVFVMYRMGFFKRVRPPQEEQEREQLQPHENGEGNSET
T1 sequence (P05106 27-788): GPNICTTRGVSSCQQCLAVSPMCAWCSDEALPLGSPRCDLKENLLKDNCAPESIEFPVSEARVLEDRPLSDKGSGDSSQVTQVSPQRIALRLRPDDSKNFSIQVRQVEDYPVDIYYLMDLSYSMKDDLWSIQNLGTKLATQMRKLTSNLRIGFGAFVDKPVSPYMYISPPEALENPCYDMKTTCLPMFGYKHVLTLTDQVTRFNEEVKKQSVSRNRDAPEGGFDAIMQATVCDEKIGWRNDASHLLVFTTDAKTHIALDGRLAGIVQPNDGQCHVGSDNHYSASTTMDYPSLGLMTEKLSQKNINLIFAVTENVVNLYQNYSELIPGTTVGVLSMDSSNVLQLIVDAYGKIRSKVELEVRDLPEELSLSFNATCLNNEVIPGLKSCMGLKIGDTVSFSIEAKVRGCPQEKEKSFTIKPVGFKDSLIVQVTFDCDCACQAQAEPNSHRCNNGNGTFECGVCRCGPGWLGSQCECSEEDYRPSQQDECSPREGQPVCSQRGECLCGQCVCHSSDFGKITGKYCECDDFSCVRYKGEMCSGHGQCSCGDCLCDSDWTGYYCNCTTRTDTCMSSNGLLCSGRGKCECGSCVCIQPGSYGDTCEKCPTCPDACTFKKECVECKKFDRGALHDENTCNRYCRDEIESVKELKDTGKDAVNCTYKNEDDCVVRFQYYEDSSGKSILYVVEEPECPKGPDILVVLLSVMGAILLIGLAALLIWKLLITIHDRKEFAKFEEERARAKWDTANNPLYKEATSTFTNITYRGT

hemopoietic stem cells = assay: CSF-induced proliferation of hemopoietic stem cells (colony formation); assay type: cell-based, mice; conditions: murine bone marrow cells, GM-CSF, 7 days
Protocol: Bone marrow cells are flushed out of the femur of mice. 10^5 cells are incubated in McCoy 5A medium (0.3% agar) together with recombinant murine GM-CSF (Genzyme; parent cell colony formation) and the substances (10^−4 to 100 μg/ml) at 37° C. and 7% CO2. 7 days later, the colonies […] and clusters (17-50 cells) are counted.

MMP-2 = target: T2, MMP-2 (Homo sapiens, UniProt P08253); assay: Cleavage of conjugates by MMP-2 in buffer (HPLC); assay type: biochemical; conditions: after 6 h incubation with MMP-2; buffer pH 7.5
T2 construct: purchased Calbiochem
T2 sequence (P08253 110-660): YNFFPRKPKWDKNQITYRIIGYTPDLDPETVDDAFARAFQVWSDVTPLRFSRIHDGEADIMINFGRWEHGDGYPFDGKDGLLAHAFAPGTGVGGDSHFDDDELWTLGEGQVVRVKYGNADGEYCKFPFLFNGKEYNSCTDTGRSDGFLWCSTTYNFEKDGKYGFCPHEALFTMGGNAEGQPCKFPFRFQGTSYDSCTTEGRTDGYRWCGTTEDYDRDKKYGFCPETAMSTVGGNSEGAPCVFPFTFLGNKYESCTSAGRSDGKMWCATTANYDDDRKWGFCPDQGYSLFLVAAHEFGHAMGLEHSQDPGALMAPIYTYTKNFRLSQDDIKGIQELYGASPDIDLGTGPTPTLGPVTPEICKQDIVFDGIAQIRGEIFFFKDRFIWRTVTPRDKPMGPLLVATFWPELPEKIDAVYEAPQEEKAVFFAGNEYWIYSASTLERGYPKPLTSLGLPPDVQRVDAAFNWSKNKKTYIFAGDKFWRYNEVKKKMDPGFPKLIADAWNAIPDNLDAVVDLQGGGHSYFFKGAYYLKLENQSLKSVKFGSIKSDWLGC
Protocol: 2.5 μl MMP-2 (Calbiochem) with a specific activity of 60 μU/μl are incubated with 10 nM of the conjugates exemplified in the example series 1-25 in 1 ml of a medium consisting of 50 mM Tris-HCl pH 7.5, 0.2 M NaCl, 10 mM CaCL2*2H2O and 0.05% Brij 35. The enzyme mediated cleavage of the conjugates is detected by HPLC analysis using an RP18 (5 μM) column with 70% HClO4/water (0.4% v/v) as eluent A and acentonitrile as eluent B (UV detection at […]). The efficiency of the cleavage is assessed by comparing the peak areas of the intact conjugate (starting material) and the cleavage product (tripeptide conjugate of camptothecin) after 6 h and 24 h incubation (cf. Table 5).

B16F10 = assay: Growth inhibition test (MTT), cytotoxic action on tumour cell lines; assay type: cell-based, mouse
In short: as §1

Row | SMILES | IC50 (HT29; human, 6 days) [nM] | IC50 (SW 480; human, 6 days) [nM] | IC50 (αvβ3 receptor; read-out: IC50 values of the binding to the αvβ3 receptor) [nM] | IC50 values of the inhibition of colony formation of hemopoietic stem cells (hemopoietic stem cells) [µg/mL] | MMP-2 mediated cleavage Peak area product/educt x100 (MMP-2) | IC50 (B16F10; mouse, 6 days) [nM] | IC50 (HT29; HT29, MTT after day 6, read-out: IC50 values of the cytotoxic action on tumour cell lines, HT29) [nM] | IC50 (SW 480; SW480, MTT after day 6, read-out: IC50 values of the cytotoxic action on tumour cell lines, SW480) [nM] | IC50 values of the binding to the αvβ3 receptor (αvβ3 receptor) | IC50 (B16F10; B16F10, MTT after day 6, read-out: IC50 values of the cytotoxic action on tumour cell lines, B16F10) [nM]
1 | CCCNC(=O)Nc1cccc(S(=O)(=O)Nc2cccc(C(CC(=O)O)NC(=O)Nc3ccc(NC(=S)N4CCC[C@@H]4C(=O)N[C@@H](CC(C)C)C(=O)NCC(=O)N[C@H](CC(C)C)C(=O)N[C@H](Cc4c[nH]cn4)C(=O)N[C@@H](C(=O)O[C@@]4(CC)C(=O)OCc5c4cc4n(c5=O)Cc5cc6ccccc6nc5-4)C(C)C)cc3)c2)c1 (some centres unmarked) [Example 1] | 50 | 70 | 40 | 0.03 | 17 | 250 | – | – | – | –
2 | CCCNC(=O)Nc1cccc(S(=O)(=O)Nc2cccc(C(CC(=O)O)NC(=O)Nc3ccc(NC(=S)NCCCC(=O)N4CCC[C@@H]4C(=O)N[C@@H](CC(C)C)C(=O)NCC(=O)N[C@H](CC(C)C)C(=O)N[C@H](Cc4c[nH]cn4)C(=O)N[C@@H](C(=O)O[C@@]4(CC)C(=O)OCc5c4cc4n(c5=O)Cc5cc6ccccc6nc5-4)C(C)C)cc3)c2)c1 (stereo partly drawn) [Example 16] ({X1-CO}-[NH(1,4-C6H4)NHCS][GABA][dP]LG[dL][dH][dV]-{Camptothecin(20R,20-O)}) | – | – | – | 0.015 | – | – | 25 | 40 | nix | 50
